The test system of the assay is HSV, Type II. The experiment in a line: Direct plaque-forming unit (PFU) count in BSC cells in defined media with set lysine (or derivative):arginine ratio. In kind it is cell-based. To be noted: average of three tests. The method, then:
Absorbed virons were absorbed in susceptible cells in chemically defined media and the number of plaques made were counted. (See Davis, B. D., et al., Microbiology, 2nd Ed., Harper & Row, 1973, Part V, and sources cited therein for procedural details and discussion of the plaque method.)
The cell line chosen was green monkey kidney cells (BSC) that have been passed greater than 41 times. […] The virons were added to a confluent lawn of BSC cells and allowed to absorb at 25° C. for one hour. The unabsorbed virons and the media were removed by washing three times in PBS. […] The control media contained a lysine/arginine ratio of 1:1. The plaques were counted when easily readable. Flasks are done in triplicate.

Structures are written as SMILES.

Regarding `NCCCCCC(N)C(=O)O` (centres unmarked) [drawing 16], the “P.F.U. Count” value runs as follows: (Compound Ratio to Arginine 10:1) less than 5; (Compound Ratio to Arginine 100:1) less than 5.

Source of the values: patent US20030153618A1, “Treatment and prevention of herpes simplex infections” (priority 1999, published 2003).
